ChEMBL document CHEMBL1126676, “On the prediction of binding properties of drug molecules by comparative molecular field analysis” (1993)

Test system: not listed separately
Assay: Negative logarithm of minimal inhibitory concentration against human rhinovirus 14
Assay type: functional

First: Cc1cc(CCCCCOc2ccc(C3=N[C@@H](C)CO3)cc2)on1
Second: Cc1cc(CCCCCCCOc2ccc(C3=N[C@H](C)CO3)cc2)on1
The “-ln (MIC)” value of the first is lower: 14.3 for the first, 14.7 for the second.

Going from `CC[C@H]1COC(c2ccc(OCCCCCCCc3cc(C)no3)cc2)=N1` to `Cc1cc(CCCCCCCOc2ccc(C3=N[C@@H](C)CO3)cc2)on1`, the “-ln (MIC)” value falls from 17.7 to 17.3.

Going from `Cc1cc(CCCCCCCOc2ccc(C3=N[C@@H](C)CO3)cc2Cl)on1` to `Cc1cc(CCCCCOc2ccc(C3=NCCO3)cc2Cl)on1`, the “-ln (MIC)” value falls from 15.4 to 12.9.

Compared with `Cc1cc(CCCCCOc2ccc(C3=NCCO3)cc2)on1`, `Cc1cc(CCCCCCCOc2ccc(C3=NCCO3)cc2)on1` [DISOXARIL] is lower in “-ln (MIC)” value: 14.5 for the first, 14.3 for the second.

Target: T1, Thermolysin (Bacillus thermoproteolyticus) (UniProt P00800)
T1 sequence (whole entry): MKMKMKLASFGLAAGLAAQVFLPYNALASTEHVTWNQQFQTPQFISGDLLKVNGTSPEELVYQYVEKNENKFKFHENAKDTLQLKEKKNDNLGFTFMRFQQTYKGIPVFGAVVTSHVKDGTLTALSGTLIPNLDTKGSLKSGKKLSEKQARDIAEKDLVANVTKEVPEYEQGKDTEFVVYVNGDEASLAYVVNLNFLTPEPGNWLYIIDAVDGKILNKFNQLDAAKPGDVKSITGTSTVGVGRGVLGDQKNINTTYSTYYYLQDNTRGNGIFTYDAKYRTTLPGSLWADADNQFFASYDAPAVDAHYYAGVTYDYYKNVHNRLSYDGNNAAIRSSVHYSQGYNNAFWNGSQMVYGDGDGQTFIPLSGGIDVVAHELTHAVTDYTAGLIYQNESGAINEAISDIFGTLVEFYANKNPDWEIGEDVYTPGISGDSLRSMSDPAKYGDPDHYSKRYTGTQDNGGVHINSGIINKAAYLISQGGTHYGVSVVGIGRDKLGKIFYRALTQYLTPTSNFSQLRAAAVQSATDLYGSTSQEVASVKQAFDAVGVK
Assay: Binding constant against thermolysin expressed as negative logarithm

Compared with `CC(C)CC(OP(=O)(O)CNC(=O)OCc1ccccc1)C(=O)NCC(=O)O` (stereo unspecified), `CC(C)CC(OP(=O)(O)CNC(=O)OCc1ccccc1)C(=O)NC(C)C(=O)O` (stereo unspecified) is higher in -ln K: 8.38 for the first, 11.2 for the second.

Compared with `CC(NC(=O)C(Cc1ccccc1)C(=O)NO)C(=O)NCCO` (stereo unspecified), `CC(C)CC(CP(=O)(O)CNC(=O)OCc1ccccc1)C(=O)NC(C)C(=O)O` (stereo unspecified) is higher in -ln K: 14.7 for the first, 17.8 for the second.

Compared with `CC(C)CC(CP(=O)(O)CNC(=O)OCc1ccccc1)C(=O)NCC(=O)O` (stereo unspecified), `CC(C)CC(NC(=O)C(CC(C)C)OP(=O)(O)CNC(=O)OCc1ccccc1)C(=O)O` (stereo unspecified) is lower in -ln K: 15 for the first, 11.6 for the second.

Compared with `CC(C)CC(N)C(=O)NO` (stereo unspecified), `CC(C)CC(OP(=O)(O)CNC(=O)OCc1ccccc1)C(=O)NC(Cc1ccccc1)C(=O)O` (stereo unspecified) is higher in -ln K: 8.57 for the first, 9.85 for the second.
